Results on seven molecules are retold here after ChEMBL document CHEMBL3822367, “Use of Photosensitizers in Semisolid Formulations for Microbial Photodynamic Inactivation” (2016).

Holding throughout (type): functional
The subject of one experiment is Burkholderia cepacia. The experiment can be described thus: Antibacterial activity against Burkholderia cepacia assessed as cell killing at 250 ug/ml after 15 mins followed by irradiation with paterson lamp at 100 J/cm'2 by serial ten fold dilution method.
Experiment [1] concerns Staphylococcus aureus. The experiment can be described thus: Antibacterial activity against methicillin-resistant Staphylococcus aureus 180 assessed as planktonic cell killing at 5 ug/ml after 15 mins followed by irradiation with paterson lamp at 100 J/cm'2 by serial ten fold dilution method.
Experiment [2] relates to Staphylococcus aureus. In words: Antibiofilm activity against Staphylococcus aureus SH1000 after 24 hrs by plate count method.
Experiment [3] deals with Staphylococcus aureus. In words: Antibacterial activity against methicillin-resistant Staphylococcus aureus ATCC BAA-44 infected in porcine stratum corneum assessed as reduction in viable cells at 10 uM preincubated for 1 hr with bacteria prior to application of bacteria on skin incubated for 5 to 240 mins followed by irradiation with blue light.
In experiment [4] the test system is Staphylococcus aureus. The experiment can be described thus: Antibiofilm activity against Staphylococcus aureus SH1000 assessed as inhibition of planktonic bacterial growth after 24 hrs by turbidity method. The note with it: SH1000, 24 h.
In experiment [5] the test system is Staphylococcus aureus. In words: Antibacterial activity against Staphylococcus aureus SH1000 in stationary phase assessed as reduction in cell viability at 4 times MIC after 2 hrs by time kill kinetic assay relative to control.
The test system of experiment [6] is Candida albicans. In words: Antimicrobial activity against Candida albicans ATCC-MYA-273 assessed as reduction in planktonic cell viability at 0.5 uM irradiated with blue light at 12 J/cm'2 for 15 mins by ten fold serial dilution method.
Experiment [7] deals with Candida albicans. In words: Antibiofilm activity against Candida albicans ATCC-MYA-273 assessed as cell killing at 1 uM irradiated with blue light at 48 J/cm'2 for 4 hrs by microplate reader method.
A further experiment deals with Trichophyton rubrum. In words: Antifungal activity against Trichophyton rubrum infected in mouse assessed as reduction in fungal burden using light source at 42 J/cm'2 for 10 mins for 7 days. Set-up: scale not given: the % may be the effect or the level left.
Experiment [8] deals with Pseudomonas aeruginosa. The experiment can be described thus: Antibacterial activity against Pseudomonas aeruginosa ATCC 9027 assessed as planktonic cell killing using laser illumination at 15.5 J/cm'2.
Experiment [9] relates to Pseudomonas aeruginosa. In words: Antibiofilm activity against Pseudomonas aeruginosa ATCC 9027 assessed as decrease in cell viability using laser illumination at 13.2 J.
Experiment [10] concerns Staphylococcus aureus. The experiment can be described thus: Antibacterial activity against methicillin-resistant Staphylococcus aureus 180 assessed as planktonic cell killing at 50 ug/ml after 15 mins followed by irradiation with paterson lamp at 100 J/cm'2 by serial ten fold dilution method.

For the molecule `C[n+]1ccc(-c2c3nc(c(-c4cc[n+](C)cc4)c4ccc([nH]4)c(-c4cc[n+](C)cc4)c4nc(c(-c5cc[n+](C)cc5)c5ccc2[nH]5)C=C4)C=C3)cc1.Cc1ccc(S(=O)(=O)[O-])cc1.Cc1ccc(S(=O)(=O)[O-])cc1.Cc1ccc(S(=O)(=O)[O-])cc1.Cc1ccc(S(=O)(=O)[O-])cc1`, the Activity is listed as 99.9% in the experiment with Burkholderia cepacia and 100% in the experiment with Staphylococcus aureus [1].

With `C[N+](C)(C)CCCOc1ccc(-c2c3nc(cc4ccc([nH]4)c(-c4ccc(OCCC[N+](C)(C)C)cc4)c4nc(cc5ccc2[nH]5)C=C4)C=C3)cc1.[Cl-].[Cl-]` [EXEPORFINIUM CHLORIDE], the MBEC in the experiment with Staphylococcus aureus [2] is 2 mg/L. Further, the Activity with Staphylococcus aureus [3] is 3.6 deltalog10CFU/ml; in the experiment with Staphylococcus aureus [5] it was “>=5 deltalog10CFU/ml”; in the experiment on Candida albicans [6], 6 deltalog10CFU/ml; in the experiment on Candida albicans [7], 5 deltalog10CFU/ml. Further, the MIC in the experiment on Staphylococcus aureus [4] stood at 1 µg/mL.

For Cetyltrimethylammonium bromide, the Activity (deltalog10CFU/ml) in the experiment with Staphylococcus aureus [5] was determined as 3.

Regarding `N=C(NCCCCCCNC(=N)NC(=N)Nc1ccc(Cl)cc1)NC(=N)Nc1ccc(Cl)cc1` [CHLORHEXIDINE], in the experiment with Staphylococcus aureus [5], the Activity is 3 deltalog10CFU/ml.

For `Cc1cc2nc3ccc(N(C)C)cc3[s+]c2cc1N.[Cl-]` [TOLONIUM CHLORIDE], in the experiment on Trichophyton rubrum, the Activity turned out to be 87%.

On to `C[N+](C)(C)CCCOc1cccc(-c2c3nc(cc4ccc([nH]4)c(-c4cccc(OCCC[N+](C)(C)C)c4)c4nc(cc5ccc2[nH]5)C=C4)C=C3)c1.[Cl-].[Cl-]`, for which the MBEC in the experiment with Staphylococcus aureus [2] worked out at 2 mg/L. In the experiment on Staphylococcus aureus [4], the MIC worked out at 1 µg/mL. In addition, in the experiment on Staphylococcus aureus [5], the Activity result is listed as “>=5 deltalog10CFU/ml”.

In the case of `CN(C)c1ccc2nc3ccc(N(C)C)cc3[s+]c2c1.[Cl-]` [METHYLENE BLUE ANHYDROUS], the Activity in the experiment on Burkholderia cepacia is listed as 100%; in the experiment on Pseudomonas aeruginosa [8], 100%; with Pseudomonas aeruginosa [9], above 99.999%; in the experiment with Staphylococcus aureus [10], 100%.
